“Also recorded” adds a separate entry of the source.
Columns and labels:
cannabinoid receptors = experiment: GTPγS binding in end stage spinal cord homogenates from G93A-SOD1 mice, separated by gender; assay type: biochemical, mouse; conditions: for 2-AG stimulated G-protein activation remaining on co-incubation with CB2 ligand: 2-AG 3 μM; for 2-AG stimulated G-protein activation remaining on co-incubation with CB2 ligand / HU-210 stimulated G-protein activation remaining on co-incubation with CB2 ligand: ligand 1 μM; for HU-210 stimulated G-protein activation remaining on co-incubation with CB2 ligand: HU-210 100 nM
Description: (§1) [^35S]GTPγS binding assays were performed as described previously (Prather et al. 2000a) in a buffer containing 20 mM Hepes, 100 mM NaCl, and 10 mM MgCl2 at pH 7.4. Each binding reaction contained 10 μg of spinal cord membrane protein, the presence or absence of cannabinoid ligands (see following), plus 0.1 nM [^35S]GTPγS (1250 Ci/mmol, Perkin Elmer Life and Analytical Sciences) and […] of GDP to suppress basal G-protein activation. Reactions were incubated for 2 hrs at 30 °C. Non-specific binding was defined by binding observed in the presence of 10 μM of non-radioactive GTPγS. The reaction was terminated by rapid vacuum filtration through glass fiber filters followed by two washes with ice-cold assay buffer. 4 mL of scintiverse® (Fisher Scientific) was added to the filters and radioactivity quantified by scintillation counting.
Harvested spinal cords from the vehicle treated control groups at the end-stage of their disease were separated by gender and used to conduct GTP7S binding experiments, which measure the capability of a ligand to promote or suppress G-protein activation.
It was next determined if the selective CB2 ligands antagonize G-protein activation produced by an endocannabinoid such as 2-AG as well.

CB1 receptors [1] = conditions: Yao et al. 2006; read-out: affinity for CB1 receptors; cited from earlier work
[2] = Water solubility and dissolution in vehicles
CB1 and CB2 receptors = experiment: [35S]GTPγS binding with selective agonists in mouse spinal cord membranes; assay type: biochemical; conditions: data not shown
Description: as §1
We initially attempted to compare CB 1 and CB2 receptor activation of G-proteins between WT-OE and G93A spinal cord membranes by conducting [^35S]GTPγS binding assays in the presence of selective agonists.

G93A-SOD1 mice [3] = experiment: Survival of G93A mice, daily i.p. treatment initiated at symptom onset; assay type: in vivo, mouse; conditions: for survival interval (symptom onset to sacrifice): vehicle 23.7+/−1.7 days; for Survival Interval Ratio (SIR) / Total Life-Span Ratio (TLR): G93A mice, i.p. daily from onset
Excerpt: Hemizygous transgenic male mice with the G93A mutation of the human SOD1 gene (G1H/1) mutation (B6SJL-TgN (SOD1-G93A) 1 Gur) were obtained from Jackson Laboratories and were bred locally with female B6SJL mice (Jackson Laboratory), according to the protocol obtained from the vendor. To decrease the inherent variability in disease onset and survival with these mice, littermate transgenic males (rather than random males from several different litters) were selected to sire subsequent generations of mice.
Determination of symptom onset, randomization and drug treatment of G93A mice. Symptom onset was assessed by blinded observation of changes in hind limb gait; these changes are related to the mouse's inability to support its weight on its hind limbs. At onset, mice initially place their weight on the toes and then quickly fall to full foot placement (as opposed to healthy mice which walk and run on the hind toes); this “toe-to-heel” walking pattern produces an asymmetric gait between hind and fore limbs and a characteristic “wobbling” gait. Mouse groups were randomized based on symptom onset and alternately placed in control and treated groups, e.g., the first mouse to develop hind limb weakness was placed in the control group, the second was injected with test compound and placed in the treatment group, and so on. […] By definition, the onset administration paradigm employed was focused on what we term the “survival interval”—namely the time from onset to end-stage sacrifice.
Mice were sacrificed when any of the following criteria were met: (1) inability to right themselves within 30 seconds when placed on their sides; (2) inability to eat or drink, or move toward food and water placed in low-rimmed dishes on cage floor; (3) loss of more than 10% of total body weight in 24 hours; (4) gross loss of grooming behavior; or (5) labored breathing. Criteria for death were confirmed by a second investigator who is blinded to the group identity of each mouse. The age of symptom onset was subtracted from the age at death for each mouse, and a mean survival interval was calculated for each group. By calculating the ratio of the survival interval of treated groups to the survival interval of untreated littermate controls, a X-fold increase in survival was readily determined.
The effect of chronic administration of cannabinoids on the survival of G93A mice was next examined (FIG. 4). […] The number of days between symptom onset and animal sacrifice was measured (e.g., survival interval). In humans, this is analogous to the time between diagnosis of ALS and death, ranging from 2-5 years.

CB2 receptors = CB2 receptors (Homo sapiens, UniProt P34972); conditions: Yao et al. 2006, cited from earlier work
G93A-SOD1 mice [4] = experiment: Motor function test (clinging to perpendicular wire mesh screen for 60 seconds) in G93A mice; assay type: in vivo, mouse
Description: Beginning on the first day of observing symptoms, mice were tested for motor function biweekly until sacrifice. Motor function testing was initiated by gently placing animals on a horizontal wire mesh screen. The screen was slowly rotated to be perpendicular to the ground (90°). The duration that mice were able to hang onto the perpendicular wire mesh up to a maximum of 120 seconds was recorded. Because vehicle treated mice on average lost the ability to cling to the wire mesh for 60 seconds in the middle of their survival curve, this “all or none” response was utilized to compare motor function across all treatment groups. Kaplan-Meier time-to-event statistics were employed to analyze the data. The event was defined as the number of days after symptom onset that each individual animal was no longer able to cling to the wire mesh screen for 60 seconds.
Testing twice a week for the duration of the study provided a quantifiable decline during disease progression. Mice were placed on a horizontal wire mesh screen that was gently inverted to 90°. Kaplan-Meier time-to-event curves were used to analyze the data. The event was defined as the day each animal was no longer able to cling to the perpendicular screen for 60 seconds. […] The disparity between male and female motor function was paralleled by the interval between survival for the genders. Male mice survived an average of 39.6±2.0 (FIG. 6a) days past the onset of symptoms, while females lived 9 days longer than males (p<0.0018*, FIG. 6b). For males and females, loss of motor function preceded death by 20.5 (p<0.0002***) and 19.0 days (p<0.0028**), respectively.

CB1 receptors [5] = target: T1, CB1 receptors (Mus musculus, UniProt P47746); experiment: Antagonism of HU-210 G-protein activation in mouse cortex membranes; assay type: biochemical; conditions: cortical membranes, HU-210 100 nM
T1 construct: employing membranes prepared from mouse cortex as a relatively pure source of CB1 receptors; from tissue; host or cells: mouse cortex
Description: This was accomplished by antagonism experiments employing membranes prepared from mouse cortex as a relatively pure source of CB1 receptors.

CB1/CB2 receptors [6] = experiment: [35S]GTPγS binding, selective antagonism of HU-210, G93A spinal cord membranes; assay type: biochemical, mouse; conditions: antagonist 3 μM
CB1/CB2 receptors [7] = experiment: [35S]GTPγS binding, selective antagonism of HU-210, WT-OE spinal cord membranes; assay type: biochemical, mouse; conditions: antagonist 3 μM
G93A-SOD1 mice [8] = conditions: administration after the onset of symptoms; Raman et al. 2004, Weydt et al. 2005; cited from earlier work
[9] = daily injections initiated at symptom onset
[10] = G93A spinal cord membranes, HU-210 100 nM
[11] = WT-OE spinal cord membranes, HU-210 100 nM

Sequence of CB2 receptors (P34972 whole entry): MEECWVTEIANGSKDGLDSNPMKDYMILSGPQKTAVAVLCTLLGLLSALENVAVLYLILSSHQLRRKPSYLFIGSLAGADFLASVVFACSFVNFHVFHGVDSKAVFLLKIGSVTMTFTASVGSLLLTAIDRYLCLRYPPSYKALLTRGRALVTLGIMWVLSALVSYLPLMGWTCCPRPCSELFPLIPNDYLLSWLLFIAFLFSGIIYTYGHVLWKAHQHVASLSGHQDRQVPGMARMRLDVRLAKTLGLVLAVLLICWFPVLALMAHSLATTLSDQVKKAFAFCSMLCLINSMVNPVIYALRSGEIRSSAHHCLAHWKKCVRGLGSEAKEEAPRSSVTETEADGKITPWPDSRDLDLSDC
T1 sequence (P47746 whole entry): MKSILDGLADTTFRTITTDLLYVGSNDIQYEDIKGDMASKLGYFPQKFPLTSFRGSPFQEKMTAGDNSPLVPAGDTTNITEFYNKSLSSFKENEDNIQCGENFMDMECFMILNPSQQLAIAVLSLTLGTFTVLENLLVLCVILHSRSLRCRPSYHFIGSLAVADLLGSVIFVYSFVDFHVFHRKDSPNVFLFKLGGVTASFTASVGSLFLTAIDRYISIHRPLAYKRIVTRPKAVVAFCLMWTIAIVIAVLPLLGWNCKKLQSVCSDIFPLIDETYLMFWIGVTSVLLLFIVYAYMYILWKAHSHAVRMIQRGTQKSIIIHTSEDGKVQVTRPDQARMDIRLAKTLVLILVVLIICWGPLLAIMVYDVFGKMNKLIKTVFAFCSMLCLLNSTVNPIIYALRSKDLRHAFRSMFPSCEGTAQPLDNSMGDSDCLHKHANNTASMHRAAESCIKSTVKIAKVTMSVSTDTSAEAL

CN1CCCCC1Cn1cc(C(=O)c2cc([N+](=O)[O-])ccc2I)c2ccccc21 (racemic) [AM-1241, (R,S)-(+)-(2-Iodo-5-nitrobenzoyl)-[1-(1-methyl-piperidin-2-ylmethyl-1H-indole-3-yl]methanone]
2-AG stimulated G-protein activation remaining on co-incubation with CB2 ligand (cannabinoid receptors; female homogenate): 11.62±2.2 fmole/mg protein
HU-210 stimulated G-protein activation remaining on co-incubation with CB2 ligand (cannabinoid receptors; female homogenates): 19.89±1.5 fmole/mg protein
2-AG stimulated G-protein activation remaining on co-incubation with CB2 ligand (cannabinoid receptors; male homogenate): 9.09±52.1 fmole/mg protein
HU-210 stimulated G-protein activation remaining on co-incubation with CB2 ligand (cannabinoid receptors; male homogenates): 9.73±2.5 fmole/mg protein
effect on G-protein activation (cannabinoid receptors; male spinal cord): relatively small decrease in G-protein activation
Ki (CB1 receptors [1]): 0.58 µM
water solubility [2]: very poor water solubility
stable dissolution in tested vehicles ([2]; ethanol/water, glycerol, polyethylene glycol, high purity olive oil tested): achieved only with olive oil
G-protein activation by selective agonist (CB1 and CB2 receptors): failed attempts to demonstrate consistent, measurable G-protein activation; also recorded: unable to demonstrate consistent, measurable G-protein activation
increase in survival interval versus vehicle (G93A-SOD1 mice [3]; 0.3 mg/kg daily i.p.): 9.7 days
survival interval (symptom onset to sacrifice) (G93A-SOD1 mice [3]; 0.3 mg/kg daily i.p.): 33.4 ± 2.2 days
increase in survival interval versus vehicle (G93A-SOD1 mice [3]; 3 mg/kg daily i.p.): 13.2 days
survival interval (symptom onset to sacrifice) (G93A-SOD1 mice [3]; 3 mg/kg daily i.p.): 36.9 ± 2.8 days
Survival Interval Ratio (SIR) (G93A-SOD1 mice [3]; 0.3 mg/kg): 1.41
Total Life-Span Ratio (TLR) (G93A-SOD1 mice [3]; 0.3 mg/kg): 1.07
Survival Interval Ratio (SIR) (G93A-SOD1 mice [3]; 3.0 mg/kg): 1.56
Total Life-Span Ratio (TLR) (G93A-SOD1 mice [3]; 3.0 mg/kg): 1.11
extension of total life-span versus controls (G93A-SOD1 mice [3]; [9]): 11%
living longer after symptom onset than controls (survival interval increase) (G93A-SOD1 mice [3]; [9]): 56%
survival improvement versus vehicle, females (G93A-SOD1 mice [3]; female G93A mice, 3 mg/kg for AM-1241 and AM630, JTE-907 dose not given): did not live significantly longer
survival improvement versus vehicle, males (G93A-SOD1 mice [3]; male G93A mice, 3 mg/kg for AM-1241 and AM630, JTE-907 dose not given): 19%
effect on survival of G93A-SOD1 mice (G93A-SOD1 mice [3]; treatment initiated at symptom onset): pronounced increase in survival
higher affinity for CB2 relative to CB1 (CB2 receptors): > 80 fold
Ki (CB2 receptors; read-out: affinity for CB2 receptors): 0.007 µM
improvement in motor function versus vehicle, females (G93A-SOD1 mice [4]; female G93A mice, time to loss of ability to cling 60 seconds): 37%
interval between mean loss of motor function and death, females (G93A-SOD1 mice [4]; female mice, vehicle 19.0 days): 9.0 days
improvement in motor function versus vehicle, males (G93A-SOD1 mice [4]; male G93A mice, time to loss of ability to cling 60 seconds): 81%
loss of motor function, days after observation of symptoms (G93A-SOD1 mice [4]; male mice, vehicle 19.1±3.9 days): 34.5 ± 5.5 days
interval between mean loss of motor function and death, males (G93A-SOD1 mice [4]; male mice, vehicle 20.5 days): 12.8 days

COc1ccc2c(c1)c(CCN1CCOCC1)c(C)n2C(=O)c1cccc(Cl)c1Cl [GW-405833, (2,3-dichloro-phenyl)-[5-methoxy-2-methyl-3-(2-morpholin-4-yl-ethyl)-indol-1-yl]-methanone]
G-protein activation by selective agonist (CB1 and CB2 receptors): failed attempts to demonstrate consistent, measurable G-protein activation; also recorded: unable to demonstrate consistent, measurable G-protein activation

CC1=CC[C@@H]2[C@@H](C1)c1ccc(CC#CCCCNS(C)(=O)=O)cc1OC2(C)C [O-2050, (6aR,1OaR)-3-(1-Methanesulfonylamino-4-hexyn-6-yl)-6a,7,10,10a-tetrahydro-6,6,9-trimethyl-6H-dibenzo[b,d]pyran]
minimal concentration required to completely block HU-210-mediated G-protein activation by CB1 receptors (CB1 receptors [5]): 3 μM
net reduction of HU-210-induced G-protein activation (CB1/CB2 receptors [6]; G93A membranes): 25.9 fmole/mg protein
% blockade of HU-210-induced G-protein activation (CB1/CB2 receptors [6]; [10]): 45%
HU-210 stimulated [35S]GTPγS binding remaining on co-incubation with antagonist (CB1/CB2 receptors [6]; [10]): 31.5±4.4 fmole/mg protein
% blockade of HU-210-induced G-protein activation (CB1/CB2 receptors [6]; G93A spinal cord membranes, HU-210 100 nM, listed as 0-2050): 46%
net reduction of HU-210-induced G-protein activation (CB1/CB2 receptors [7]; WT-OE membranes): 28.3 fmoles/mg protein
% blockade of HU-210-induced G-protein activation (CB1/CB2 receptors [7]; [11]): 92%
HU-210 stimulated [35S]GTPγS binding remaining on co-incubation with antagonist (CB1/CB2 receptors [7]; [11]): 2.5±0.8 fmole/mg protein

CCCCCc1cc(O)c2c(c1)OC(C)(C)c1ccc(C)cc1-2 [cannabinol]
delaying motor impairment and prolonging survival in G93A mice (G93A-SOD1 mice [8]): minimally successful

CCCCCc1cc(O)c2c(c1)OC(C)(C)[C@@H]1CCC(C)=C[C@@H]21 [Δ^9-THC, Δ^9-Tetrahydrocannabinol]
delaying motor impairment and prolonging survival in G93A mice (G93A-SOD1 mice [8]): minimally successful
